What was measured:
MiaPaca2 cells = assay: Ras cellular assay, growth of cells with K-Ras G12C mutation; format: cell-based; conditions: Homo sapiens, MIA PaCa-2; cell proliferation assay; bins ≤500 nM / >500 nM; read-out: Inhibition of MiaPaca2 Cells (IC50)
Description: For example, this assay can be also used to assess selective growth inhibition of a mutant Ras protein relative to a wildtype or different mutant Ras protein.
MIA PaCa-2 (ATCC CRL-1420) and NCI-H1792 (ATCC CRL-5895) cell lines comprise a G12C mutation and can be used to assess Ras cellular signaling in vitro, e.g., in response to an inhibitor compound of the present disclosure. […] MIA PaCa-2 culture medium is prepared with DMEM/Ham's F12 (e.g., with stable glutamine, 10% FCS, and 2.5% horse serum. NCI-H1792 culture medium is prepared with RPMI 1640 (e.g., with stable glutamine) and 10% FCS.
On a first day (e.g., Day 1), Softagar (Select Agar, Invitrogen, 3% in ddH2O autoclaved) is boiled and tempered at 48° C. Appropriate culture medium (i.e., medium) is tempered to 37° C. Agar (3%) is diluted 1:5 in medium (=0.6%) and plated into 96 well plates (Corning, #3904), then incubated at room temperature for agar solidification. A 3% agar is diluted to 0.25% in medium (1:12 dilution) and tempered at 42° C. Cells are trypsinized, counted, and tempered at 37° C. The cells (e.g., MIA PaCa-2 at about 125-150 cells, NCI-H1792 at about 1000 cells) are resuspended in […] 0.25% Agar and plated, followed by incubation at room temperature for agar solidification. The wells are overlaid with […] of the medium. Sister wells in a separate plate are plated for time zero determination. All plates are incubated overnight at 37° C. and 5% CO2.
On a second day (e.g., Day 2), time zero values are measured. A […] volume of Cell Titer 96 Aqueous Solution (Promega) is added to each well and incubated in the dark at 37° C. and 5% CO2. Absorption can be measured at 490 nm and reference wavelength 660 nm. DMSO-prediluted test compounds are added to wells of interest, e.g., with HP Dispenser, to one or more desired concentrations (e.g., a final DMSO concentration of 0.3%).
On a tenth day (e.g., Day 10), absorption by wells treated with the test compounds and control wells are measured with, for example, Cell Titer 96 AQueous and analyzed in comparison to the time zero measurements. The IC50 values are determined using the four parameter fit. The resulting IC50 value is a measurement of the ability of the test compound to reduce cell growth of Ras-driven cells (e.g., tumor cell lines) in vitro and/or in vivo.

KRAS WT = biological target: T1, KRAS WT (Homo sapiens, UniProt P01116); assay: HTRF assay, wildtype KRAS interaction with SOS1; format: biochemical; conditions: bins <500 nM / 500 nM to 1000 nM, read-out: Inhibition of KRAS WT (IC50)
T1 construct: made in house; host or cells: E. coli, e.g. BL21 (DE3)

KRAS G12V = biological target: T2, KRAS G12V (Homo sapiens, UniProt P01116, G12V); assay: HTRF assay, KRAS G12V interaction with SOS1; format: biochemical; conditions: bins <500 nM / 500 nM to 1000 nM, read-out: Inhibition of KRAS G12V (IC50)
T2 construct: made in house; host or cells: E. coli, e.g. BL21 (DE3)

KRAS G12D = biological target: T3, KRAS G12D (Homo sapiens, UniProt P01116, G12D); assay: HTRF assay, KRAS G12D interaction with SOS1; format: biochemical; conditions: bins <500 nM / 500 nM to 1000 nM, read-out: Inhibition of KRAS G12D (IC50)
T3 construct: made in house; host or cells: E. coli, e.g. BL21 (DE3)

KRAS G12S = biological target: T4, KRAS G12S (Homo sapiens, UniProt P01116, G12S); assay: HTRF assay, KRAS G12S interaction with SOS1; format: biochemical; conditions: bins <500 nM / 500 nM to 1000 nM, read-out: Inhibition of KRAS G12S (IC50)
T4 construct: made in house; host or cells: E. coli, e.g. BL21 (DE3)
T4 sequence (P01116 1-188 isoform P01116-2 G12S): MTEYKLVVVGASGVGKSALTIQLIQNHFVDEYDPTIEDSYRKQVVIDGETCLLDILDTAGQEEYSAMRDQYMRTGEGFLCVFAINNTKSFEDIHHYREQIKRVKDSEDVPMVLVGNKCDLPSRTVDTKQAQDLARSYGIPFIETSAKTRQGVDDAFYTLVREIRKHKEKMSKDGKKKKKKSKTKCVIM

T3 sequence (P01116 1-188 isoform P01116-2 G12D): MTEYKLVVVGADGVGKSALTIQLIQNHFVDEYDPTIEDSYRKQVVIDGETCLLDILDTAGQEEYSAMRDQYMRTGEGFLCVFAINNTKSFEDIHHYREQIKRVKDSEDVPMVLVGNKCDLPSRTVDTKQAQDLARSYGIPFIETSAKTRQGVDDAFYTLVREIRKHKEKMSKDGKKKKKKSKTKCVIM
T2 sequence (P01116 1-188 isoform P01116-2 G12V): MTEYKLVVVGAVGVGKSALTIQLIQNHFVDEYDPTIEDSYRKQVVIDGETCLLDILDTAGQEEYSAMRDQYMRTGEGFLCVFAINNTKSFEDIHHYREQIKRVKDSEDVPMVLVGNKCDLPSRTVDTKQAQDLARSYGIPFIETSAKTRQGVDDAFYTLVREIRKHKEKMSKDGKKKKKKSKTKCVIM
T1 sequence (P01116 1-188 isoform P01116-2): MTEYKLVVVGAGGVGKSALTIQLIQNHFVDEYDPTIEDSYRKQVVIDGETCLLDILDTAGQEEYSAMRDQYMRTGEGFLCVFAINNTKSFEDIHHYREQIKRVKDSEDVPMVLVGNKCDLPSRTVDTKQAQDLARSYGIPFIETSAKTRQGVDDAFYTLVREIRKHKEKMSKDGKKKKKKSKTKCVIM

Row | SMILES | IC50 (MiaPaca2 cells) | IC50 (KRAS WT) | IC50 (KRAS G12V) | IC50 (KRAS G12D) | IC50 (KRAS G12S)
1 | CCN(c1nc(OC[C@@]23CCCN2[C@H](COc2ccc(C(F)(F)F)nn2)CC3)nc2c(F)c(-c3ccc(F)c4sc(N)c(C#N)c34)c(Cl)cc12)[C@@H]1CCN(C(=O)n2cc(C)nc2C)[C@@H]1C [Compound 182, 2-amino-4-(6-chloro-4-(((2R,3R)-1-(2,4-dimethyl-1H-imidazole-1-carbonyl)-2-methylpyrrolidin-3-yl)(ethyl)amino)-8-fluoro-2-(((3S,7aS)-3-(((6-(trifluoromethyl)pyridazin-3-yl)oxy)methyl)tetrahydro-1H-pyrrolizin-7a(5H)-yl)methoxy)quinazolin-7-yl)-7-fluorobenzo[b]thiophene-3-carbonitrile] | ≤ 500 nM | < 500 nM | < 500 nM | < 500 nM | < 500 nM
2 | CCN(c1nc(OC[C@@]23CCCN2C[C@H](F)C3)nc2c(F)c(-c3ccc(F)c4sc(N)c(C#N)c34)c(Cl)cc12)[C@@H]1CCN(C(=O)n2ccnc2C)[C@@H]1C [Compound 163, 2-amino-4-(6-chloro-4-(ethyl((2R,3R)-2-methyl-1-(2-methyl-1H-imidazole-1-carbonyl)pyrrolidin-3-yl)amino)-8-fluoro-2-(((2R,7aS)-2-fluorotetrahydro-1H-pyrrolizin-7a(5H)-yl)methoxy)quinazolin-7-yl)-7-fluorobenzo[b]thiophene-3-carbonitrile] | ≤ 500 nM | < 500 nM | < 500 nM | < 500 nM | < 500 nM
3 | CCN(c1nc(OC[C@@]23CCCN2C[C@H](F)C3)nc2c(F)c(-c3ccc(F)c4sc(N)c(C#N)c34)c(Cl)cc12)[C@@H]1CCN(C(=O)n2ccnc2)[C@@H]1C [Compound 106, 4-(4-(((2R,3R)-1-(1H-imidazole-1-carbonyl)-2-methylpyrrolidin-3-yl)(ethyl)amino)-6-chloro-8-fluoro-2-(((2R,7aS)-2-fluorotetrahydro-1H-pyrrolizin-7a(5H)-yl)methoxy)quinazolin-7-yl)-2-amino-7-fluorobenzo[b]thiophene-3-carbonitrile] | ≤ 500 nM | < 500 nM | < 500 nM | < 500 nM | < 500 nM
4 | Cc1c(C#N)ncn1C(=O)N1C[C@]2(CCCCN(c3nc(OC[C@@]45CCCN4C[C@H](F)C5)nc4c(F)c(-c5ccc(F)c6sc(N)c(C#N)c56)c(Cl)cc34)C2)[C@H]1C [Compound 161, 1-((1R,4R)-6-(7-(2-amino-3-cyano-7-fluorobenzo[b]thiophen-4-yl)-6-chloro-8-fluoro-2-(((2R,7aS)-2-fluorotetrahydro-1H-pyrrolizin-7a(5H)-yl)methoxy)quinazolin-4-yl)-1-methyl-2,6-diazaspiro[3.6]decane-2-carbonyl)-5-methyl-1H-imidazole-4-carbonitrile] | ≤ 500 nM | < 500 nM | < 500 nM | < 500 nM | < 500 nM
5 | CN(c1nc(OC[C@@]23CCCN2C[C@H](F)C3)nc2c(F)c(-c3ccc(F)c4sc(N)c(C#N)c34)c(Cl)cc12)[C@@H]1CCN(C(=O)n2cncn2)C1 [Compound 181, 4-(4-(((R)-1-(1H-1,2,4-triazole-1-carbonyl)pyrrolidin-3-yl)(methyl)amino)-6-chloro-8-fluoro-2-(((2R,7aS)-2-fluorotetrahydro-1H-pyrrolizin-7a(5H)-yl)methoxy)quinazolin-7-yl)-2-amino-7-fluorobenzo[b]thiophene-3-carbonitrile] | ≤ 500 nM | < 500 nM | < 500 nM | < 500 nM | < 500 nM
6 | Cc1cn(C(=O)N2CC[C@@]23CCN(c2nc(OC[C@@]45CCCN4C[C@H](F)C5)nc4c(F)c(-c5ccc(F)c6sc(N)c(C#N)c56)c(Cl)cc24)C3)cn1 (atropisomer, axis not shown; (aS)) [Compound 107, (R)-2-amino-4-(6-chloro-8-fluoro-2-(((2R,7aS)-2-fluorotetrahydro-1H-pyrrolizin-7a(5H)-yl)methoxy)-4-((R)-1-(4-methyl-1H-imidazole-1-carbonyl)-1,6-diazaspiro[3.4]octan-6-yl)quinazolin-7-yl)-7-fluorobenzo[b]thiophene-3-carbonitrile] | ≤ 500 nM | < 500 nM | < 500 nM | < 500 nM | < 500 nM
7 | C[C@@H]1[C@H](N(C)c2nc(OC[C@@]34CCCN3C[C@H](F)C4)nc3c(F)c(-c4ccc(F)c5sc(N)c(C#N)c45)c(Cl)cc23)CCN1C(=O)n1cnc(F)n1 [Compound 112, 2-amino-4-(6-chloro-8-fluoro-4-(((2R,3R)-1-(3-fluoro-1H-1,2,4-triazole-1-carbonyl)-2-methylpyrrolidin-3-yl)(methyl)amino)-2-(((2R,7aS)-2-fluorotetrahydro-1H-pyrrolizin-7a(5H)-yl)methoxy)quinazolin-7-yl)-7-fluorobenzo[b]thiophene-3-carbonitrile] | ≤ 500 nM | < 500 nM | < 500 nM | < 500 nM | < 500 nM

Other lines, results leading:

Row | IC50 (MiaPaca2 cells) | IC50 (KRAS WT) | IC50 (KRAS G12V) | IC50 (KRAS G12D) | IC50 (KRAS G12S) | SMILES
8 | > 500 nM | < 500 nM | < 500 nM | 500 to 1000 nM | < 500 nM | CC(C)[C@@H]1C[C@H](N(C)c2nc(OC[C@@]34CCCN3C[C@H](F)C4)nc3c(F)c(-c4ccc(F)c5sc(N)c(C#N)c45)c(Cl)cc23)CN1C(=O)n1cnc(Cl)n1 [Compound 216, 2-amino-4-(6-chloro-4-(((3S,5S)-1-(3-chloro-1H-1,2,4-triazole-1-carbonyl)-5-isopropylpyrrolidin-3-yl)(methyl)amino)-8-fluoro-2-(((2R,7aS)-2-fluorotetrahydro-1H-pyrrolizin-7a(5H)-yl)methoxy)quinazolin-7-yl)-7-fluorobenzo[b]thiophene-3-carbonitrile]
9 | ≤ 500 nM | < 500 nM | < 500 nM | < 500 nM | < 500 nM | C[C@@H]1[C@H](N(C)c2nc(OC[C@@]34CCCN3C[C@H](F)C4)nc3c(F)c(-c4ccc(F)c5sc(N)c(C#N)c45)c(Cl)cc23)CCN1C(=O)n1ccnc1C1CC1 [Compound 201, 2-amino-4-(6-chloro-4-(((2R,3R)-1-(2-cyclopropyl-1H-imidazole-1-carbonyl)-2-methylpyrrolidin-3-yl)(methyl)amino)-8-fluoro-2-(((2R,7aS)-2-fluorotetrahydro-1H-pyrrolizin-7a(5H)-yl)methoxy)quinazolin-7-yl)-7-fluorobenzo[b]thiophene-3-carbonitrile]
10 | ≤ 500 nM | < 500 nM | < 500 nM | < 500 nM | < 500 nM | Cc1cn(C(=O)N2C[C@]3(CC[C@H](C)N(c4nc(OC[C@@]56CCCN5C[C@H](F)C6)nc5c(F)c(-c6ccc(F)c7sc(N)c(C#N)c67)c(Cl)cc45)C3)[C@H]2C2(C)CC2)cn1 [Compound 210, 2-amino-4-(6-chloro-8-fluoro-2-(((2R,7aS)-2-fluorotetrahydro-1H-pyrrolizin-7a(5H)-yl)methoxy)-4-((1R,4R,7S)-7-methyl-2-(4-methyl-1H-imidazole-1-carbonyl)-1-(1-methylcyclopropyl)-2,6-diazaspiro[3.5]nonan-6-yl)quinazolin-7-yl)-7-fluorobenzo[b]thiophene-3-carbonitrile]
11 | ≤ 500 nM | < 500 nM | < 500 nM | < 500 nM | < 500 nM | CCN(c1nc(OC[C@@]23CCCN2C[C@H](F)C3)nc2c(F)c(-c3cccc4sc(N)c(C#N)c34)c(Cl)cc12)[C@@H]1CCN(C(=O)n2cc(C)nc2C)[C@@H]1C [Compound 195, 2-amino-4-(6-chloro-4-(((2R,3R)-1-(2,4-dimethyl-1H-imidazole-1-carbonyl)-2-methylpyrrolidin-3-yl)(ethyl)amino)-8-fluoro-2-(((2R,7aS)-2-fluorotetrahydro-1H-pyrrolizin-7a(5H)-yl)methoxy)quinazolin-7-yl)benzo[b]thiophene-3-carbonitrile]

Source: patent US20260217735A1, “HETEROCYCLES AND USES THEREOF” (Kumquat Biosciences Inc., priority 2023, published 2026)
